From a melting point compilation (Tetko et al.; mined from patent text by program, amines drawn as free bases though some values may be those of a salt) come the findings set out here.

What is called melting point is the temperature, or range, at which the solid turns liquid.

`O=c1c2c(Cc3ccccc3)n[nH]c2c2cccnc2n1-c1cccc(F)c1` yielded a melting point of 298 to 299 °C. Regarding `Nc1c(F)c(N2CCC(C(N)c3cccnc3)C2)c(F)c2c1c(=O)c(C(=O)O)cn2C1CC1F` (stereo unspecified), the melting point lay within 123 to 126 °C. In the case of `C=CC(=O)[C@@H]1CCCC[C@H]1C(=O)O` (relative stereo) it was 101 to 102 °C; in that of `O=C1CC2(CCO1)c1ccccc1Oc1ccccc12`, 156 to 159 °C; in that of `CCOC(=O)C1=C(C)NC(C)=C(C(=O)OC)C1c1cccc2c(=O)c(C)c(-c3ccccc3)oc12` (stereo unspecified), 226 to 228 °C.

For the compound `Cc1nc(N2CCN(Cc3ccc(C(F)(F)F)cc3)C2=O)sc1C(=O)NCc1cccnc1`, the melting point is 107 to 108 °C.

For the compound `COc1ccccc1-c1cc(C(C)(C)C)c(O)c(C(C)(C)C)c1`, the melting point lay in the range of 98.5 to 100 °C.

Compound `O=C(O)c1ccc(-c2nc(NCc3ccc4c(c3)OCO4)c3cc([N+](=O)[O-])sc3n2)cc1` registered a melting point of 172 °C. `Cc1nnc2nc(-c3ccccc3)c3cc(Cl)ccc3n12` showed a melting point of 335 to 337 °C. On to `CCOC(=O)CCCSC(=S)NCc1ccc(Cl)cc1`, for which the melting point was 61 to 62 °C. In the case of `CC(C)(C)c1cc(SC2(Sc3cc(C(C)(C)C)c(O)c(C(C)(C)C)c3)CCCCCC2)cc(C(C)(C)C)c1O` it was 144 to 146 °C. Regarding `CCCOc1ccccc1-c1ccc(N)c(=O)[nH]1`, the melting point is 158 to 161 °C. For the compound `Cc1ccc(CN(O)C(N)=O)o1`, the melting point came out at 105 °C. `CC(C)(C=O)C(O)(COc1cccc2ccccc12)Cn1ccnc1` (stereo unspecified) gave a melting point of 147 °C. In turn, `CCOC(=O)c1ccc(NCCCc2ccc(Cl)cc2)cc1` returned a melting point of 122 to 124 °C. Next, `CCN1CC(=O)N(C(C)c2ccc(F)cc2)C1=S` (stereo unspecified): 93 to 95 °C. In turn, `c1ccc(COc2cc(OCC3CCCCC3)ccc2CNc2ccncc2)cc1` came in with a melting point of 131 to 132 °C. Next, `O=C(CCc1cccnc1)NC(Cc1c[nH]c2ccccc12)C(=O)CCc1cc(C(F)(F)F)cc(C(F)(F)F)c1` (stereo unspecified): 123 to 124 °C. In the case of `CCCCCc1ccc(OCC23CCC(CCC)(CC2)CC3)c(C#N)c1C#N`, the melting point is 133 °C. For the compound `CCc1c(O)c(C(C)=O)c(C)c2c1OC(C)(C)CC2C` (stereo unspecified), the melting point was in the range of 70 to 71 °C. `N#Cc1ccc(Oc2ccc(Cl)c(Cl)c2)c(C=O)c1` displayed a melting point of 122 to 126 °C. In the case of `CCOc1cc(OC)cc(OP(=O)(O)O)c1C(=O)C=Cc1ccc(OC)cc1`, the melting point fell in the range of 72 to 75 °C.

`Cc1ccc(-c2ccccc2C(=O)NN)cc1` came in with a melting point of 98 to 99 °C.

With `CCOC(=O)C(C#N)=CNc1ncccc1C`, the melting point lay within 139 to 143 °C. For `CC(C)(C)S(=O)(=O)NC(=O)c1cccc([N+](=O)[O-])c1`, the melting point worked out at 220 °C. For the compound `CN1C(=O)C(c2ccc(OC(F)(F)F)c(F)c2)(c2ccc(F)c(-c3cncc(F)c3)c2)N=C1N` (stereo unspecified), the melting point was in the range of 91 to 97 °C.

Regarding `CCOC(=O)c1ncn2c1CN=C(c1ccccn1)c1cc(C#C[Si](C)(C)C)ccc1-2`, the melting point is 205 to 206 °C.

The compound `O=Cc1cc(Oc2c(Cl)cc(-n3ncc(=O)[nH]c3=O)cc2Cl)ccc1O` had a melting point of 146 to 150 °C. `COC(=O)[C@H]1CC[C@@H](c2c(-c3ccccc3)n(C)c3ccccc32)CC1` showed a melting point of 141 to 142 °C. Compound `O=C(O)c1ccc(C#Cc2ccc(OCC(O)CO)c(C34CC5CC(CC(C5)C3)C4)c2)cc1` (stereo unspecified) registered a melting point of 300 to 302 °C. Take `CC1(C)CCCC(C)(C)N1Cc1ccc2cc(NC(=O)N3CCC(c4ccc(Cl)cc4)CC3)ccc2n1`: the melting point fell in the range of 203 to 204 °C. `N#Cc1cnn(-c2c(Cl)cc(C(F)(F)F)cc2Cl)c1N`: the melting point was in the range of 165 to 167 °C. Take `CC12CCC(=O)C=C1CCC1C2=CCC2(C)C1CCC2(OC=O)C(=O)CCl` (stereo unspecified): the melting point amounted to 203 °C.

Consider `Clc1cccc(C2CCN(CCCOc3ccc4scnc4c3)CC2)c1Cl`, for which the melting point was in the range of 114 to 116 °C. Consider `CC(C)(C)OC(=O)N1CCC(NC(=O)c2ccc(-n3cccn3)cc2)CC1`, for which the melting point fell in the range of 170 to 171 °C.

Compound `CC1CCN(c2c(F)c(N)c3c(=O)c(C(=O)O)cn(C4CC4)c3c2F)CC(C)(C)C1` (stereo unspecified) yielded a melting point of 148 to 150 °C.

Compound `C=CCC1(CCNC(=O)C2CC2)c2cc(OC)ccc2CCC12OCCO2` (stereo unspecified) came in with a melting point of 94 to 95 °C. Turning to `O=S(N=Cc1ccccc1)c1nccnc1Cl` (stereo unspecified), the melting point was 113 to 114 °C. For `CCNC(=O)Nc1cc(C(=O)OC)c(O)c2ncc(Cc3ccc(F)cc3)cc12`, the melting point fell in the range of 280 to 282 °C. Take `COc1ccc(-c2c(C(C)=O)c(Cn3cncn3)nc3cc(OC)c(OC)cc23)cc1OC`: the melting point fell in the range of 180 to 181 °C.

`N#Cc1ccc(OCC(O)CN2CC3CC(C2)CN(C(=O)OCc2ccc([N+](=O)[O-])cc2)C3)cc1` (stereo unspecified) gave a melting point of 165 to 166 °C.

For the compound `CCCCCCCCCCCCN1CCN(CCCCCCNc2cc(OC)cc3c(C)ccnc23)CC1`, the melting point lay in the range of 53 to 55 °C. With `Nc1ncc(Cl)c(CCl)c1Cl`, the melting point was 124 to 126 °C. Next, `COc1cc(C(C)C)c2c(c1)S(=O)(=O)N(COc1cc(C(F)(F)F)nn1-c1ccncc1)C2=O`: 161 to 162 °C; `COC(=O)c1cccc(-c2nc(-c3ccc(F)cc3F)cs2)c1`: 121 to 122 °C; `C=CCC12CCC(c3ccccc31)c1ccccc12`: 42 to 43 °C. The compound `N#CC(c1ccccc1)(c1ccccc1)[C@H]1CCCN(CCc2ccc3c(c2)CCC3)C1` gave a melting point of 88 to 91 °C. `Cc1nccc2[nH]c(=O)c(C#N)cc12` showed a melting point of 275 to 277 °C. `CCc1nc2c(C)cc(C)nc2n1Cc1ccc(C(CCNS(=O)(=O)C(F)(F)F)c2ccccc2)cc1` (stereo unspecified): the melting point was 64 to 69 °C. Next, `CCOC(=O)c1c(N2CCN(C(=O)c3cccs3)CC2)c2cc(F)cnc2n(Cc2ccccc2)c1=O`: 130 °C; `O=C(O)C1C2CCC(C2)C1NS(=O)(=O)c1ccccc1` (stereo unspecified): 157 to 159 °C. `NS(=O)(=O)c1cc2ncc(O)cc2s1` yielded a melting point of 248 to 250 °C.

`COc1ccc(N)c(OC)c1-c1ccc(C[C@H](NC(=O)c2c(Cl)cccc2Cl)C(=O)O)cc1`: the melting point was 231 to 232 °C.

The compound `Nc1nc(Nc2ccc(S(N)(=O)=O)cc2)sc1C(=O)c1c(F)cccc1F` displayed a melting point of 258 to 260 °C. `COc1cccc([C@H]2O[C@H](CC(=O)N[C@H](C)C(=O)OC(C)(C)C)C(=O)N(CC(C)(C)C)c3ccc(Cl)cc32)c1OC` yielded a melting point of 127 to 128 °C. Regarding `OCCCc1cc(-c2ccc(C(F)(F)F)cc2)no1`, the melting point fell in the range of 59 to 60 °C. Turning to `C=C(C(=O)c1c(OC)ccc(-c2cccs2)c1OC)c1ccc(C(=O)O)cc1`, the melting point was in the range of 193 to 195 °C.

`Cc1c(Br)ccc(S(C)(=O)=O)c1S(C)(=O)=O` came in with a melting point of 169 to 171 °C. The compound `COc1ccc(-c2nn(Cc3ccccc3)c(=O)c3ccccc23)c(OC)c1OC` returned a melting point of 144 to 145 °C. The compound `CC(C)Sc1cn(C)cc(-c2cccc(C(F)(F)F)c2)c1=O` gave a melting point of 93 to 94 °C.

In the case of `C#CCC(CC#C)NC(=O)C(F)(F)F`, the melting point is 55 to 57 °C. The compound `NS(=O)(=O)c1ccc(NC(=O)CCl)cc1C(F)(F)F` registered a melting point of 185 to 190 °C. In the case of `O=C(Cc1ccccc1)N1CC2CCC(C1)O2` it was 106 °C; in that of `N#Cc1ccc(Nc2nc(NCc3ccco3)nc(Nc3ccc(O)cc3)n2)cc1`, 62 to 65 °C; in that of `CCOC(=O)c1c(COC(C)=O)cccc1S(=O)(=O)NC(=O)Nc1nc(OC)cc(OC)n1`, 162 to 163 °C. Next, `CCc1ccc(NC(=O)c2sccc2S(=O)(=O)Nc2onc(C)c2Br)cc1`: 187 to 190 °C. As to `Cc1[nH]c(=O)[nH]c1C(=O)c1ccc(N2CCCCC2)cc1`, the melting point is 260 to 263 °C. Compound `N#Cc1nn(-c2c(Cl)cc(C(F)(F)F)cc2Cl)c(N)c1S(=O)(=O)c1ccc(Cl)cc1` gave a melting point of 90 to 95 °C. `CCCCCCCCCCCCCCCCCCc1ccc(S(=O)(=O)Nc2nncs2)cc1` returned a melting point of 116 to 117 °C. In turn, `CS(=O)(=O)c1ccc(/C(=C\C2CCCCC2)C(=O)O)cc1C(F)(F)F` returned a melting point of 62 to 64 °C. For the compound `COc1cc2c(CSCCN3CC=C(c4ccccc4)CC3)c[nH]c2cc1C(=O)O`, the melting point fell in the range of 168 to 171 °C. `CCOCc1nc2c(N)nc3cc(-c4cccc(C(=O)N5CCCC5)c4)cnc3c2n1CC(C)(C)O` gave a melting point of 185 to 187 °C. In turn, `CC1=C(c2ccc(O)cc2)C(=O)c2ccc(O)cc21` returned a melting point of 138 to 146 °C. `CCc1c(C(=O)NCCCCCCC(=NOCCN)c2ccc(C(F)(F)F)cc2)nc(-c2ccccc2Cl)n1-c1ccc(Cl)cc1` displayed a melting point of 90 to 95 °C.

`COc1ncnc(OC)c1N`: the melting point lay in the range of 94 to 96 °C. `CCc1ccc(O)c(C(=NO)c2ccc(Cl)cc2)c1` had a melting point of 117 °C.

In turn, `CN1C[C@]2(C)CC[C@](NCC(=O)N3C[C@@H](F)C[C@H]3C#N)(C1)C2(C)C` registered a melting point of 122 to 126 °C. Compound `COC(=O)Cc1ccc(CNC(=O)C2Cc3ccccc3N2S(=O)(=O)c2ccc(-c3cccc(C(F)(F)F)c3)cc2)c(Cl)c1` (stereo unspecified) showed a melting point of 124 to 126 °C. For `CCCc1c[nH]c(CCC(=O)N(C)C)c1`, the melting point was in the range of 71 to 72 °C.

`Cc1cc(F)ccc1C1(c2ccc(S(C)(=O)=O)cc2C)CSC=C1c1ccc(S(C)(=O)=O)cc1` (stereo unspecified): the melting point fell in the range of 158 to 160 °C. Compound `CCn1cc(C(=O)O)c(=O)c2c(C)c(F)c(N3CCC(N)C3)c(F)c21` (stereo unspecified) returned a melting point of 218 to 220 °C.

Compound `CC(NC(=O)OC(C)(C)C)C(=O)Nc1cc(CO)cc(Nc2c3ccccc3nc3ccccc23)c1` (stereo unspecified) had a melting point of 131 to 133 °C. `CC12C=CC(O)CC1=CCC1C2CCC2(C)C1CCC21OCCO1` (stereo unspecified) displayed a melting point of 138 to 140 °C.

In turn, `O=c1[nH]c(CCCl)c(Cl)c(=O)[nH]1` returned a melting point of 225 °C. Regarding `CC(C)(C)c1nc(C(=O)c2ncc[nH]2)nc(C(C)(C)C)c1O`, the melting point is 217 to 220 °C. `O=C1OCCN1CCC1=NCCN1` returned a melting point of 118 to 123 °C.
